Patent publication US10532106B2 (priority 2014, dated 2020)
Like-named read-outs stand apart in the source and are kept apart here. Numbered stars: 1 amine (or outer) side, 2 acyl side, 3 side chain; on linkers, the order of the positions; unused ones are H or OH. Bridge positions count the residues as written; N and C are the ends. Square brackets hold non-standard residues; d marks the D form. Peptide text beside a SMILES is read from it. Phe(4-Br) = N[C@@H](Cc1ccc(Br)cc1)C(=O)O; 1Nal = N[C@@H](Cc1cccc2ccccc12)C(=O)O; TBMB = c1c(C[*:1])cc(C[*:3])cc1C[*:2]; Chg = N[C@H](C(=O)O)C1CCCCC1; Tle = CC(C)(C)[C@H](N)C(=O)O; Sar = CNCC(=O)O

Assays:
[1] = Mouse pharmacokinetics, intravenous; format: in vivo; conditions: plasma, male CD1 mice, single intravenous 5.925 mg/kg
Protocol: Mouse pharmacokinetics were acquired using bicyclic peptide 17-69-04-N004, which was dosed to one group of 12 male CD1 mice as a single intravenous, 5.925 mg/kg doses as a 5 mL/kg bolus of a 1.19 mg/mL solution. […] Blood samples were taken from two animals per time-point, via cardiac puncture under terminal anaesthesia, at 0.08, 0.5, 1, 2 and 4 hours post-dose, and transferred to EDTA tubes for plasma generation. Plasma samples were immediately frozen at −20 C. For analysis, samples were thawed rapidly and 50 μL aliquots were treated with 3 volumes of extraction solvent (2:9:9 mixture of 10 mM ammonium bicarbonate, pH 8, acetonitrile and methanol, containing an analytical internal standard). Precipitated proteins were removed by centrifugation and the supernatant was analysed by LC-MS/MS. Quantification of the samples was by reference to a calibration line prepared in control mouse plasma. Pharmacokinetic parameters were determined by non-compartmental analysis using the software package PK Solutions 2.0 from Summit Research Services.

[2] = target: T1, MT1-MMP hemopexin domain (Homo sapiens, UniProt P50281); experiment: Competition assay using fluorescence polarisation; format: binding; conditions: for Kd: read-out: Kd
T1 construct: residues Cys319-Gly511 from the human gene; His6 (N); made in house; host or cells: HEK293 (transient), pEXPR-IBA42 vector
Text: Here, a pre-formed complex of PEX with the fluorescent PEX-binding tracer is titrated with free, non-fluoresceinated bicyclic peptide. Since all 17-69-based peptides are expected to bind at the same site, the titrant will displace the fluorescent tracer from PEX. Dissociation of the complex can be measured quantitatively, and the Kd of the competitor (titrant) to the target protein determined. The advantage of the competition method is that the affinities of non-fluoresceinated bicyclic peptides can be determined accurately and rapidly.
Subsequently, the non-fluorescent competitor bicyclic peptide (usually just the bicycle core sequence) is titrated, such that it displaces the fluorescent tracer from the target protein. The displacement of the tracer is measured and associated with a drop in fluorescence polarisation. The drop in fluorescence polarisation is proportional to the fraction of target protein bound with the non-fluorescent titrant, and thus is a measure of the affinity of titrant to target protein.
The raw data is fit to the analytical solution of the cubic equation that describes the equilibria between fluorescent tracer, titrant, and binding protein. The fit requires the value of the affinity of fluorescent tracer to the target protein, which can be determined separately by direct binding FP experiments (see previous section).

[3] = Table 8, substitutions at position 4

Compound: CC[C@H](C)[C@@H]1NC(=O)[C@H](CC(=O)O)NC(=O)[C@H](Cc2ccc(O)cc2)NC(=O)[C@H](Cc2ccccc2)NC(=O)[C@H](CC(=O)O)NC(=O)[C@H](CCC(=O)O)NC(=O)[C@@H]2CSCc3cc(cc(c3)CSC[C@H](NC(C)=O)C(=O)N[C@@H](Cc3ccc(O)cc3)C(=O)N[C@@H](CC(N)=O)C(=O)N[C@@H](CCC(=O)O)C(=O)N[C@@H](Cc3ccccc3)C(=O)NCC(=O)N2)CSC[C@@H](C(N)=O)NC1=O [17-69-07-N004, Ac-(17-69-07) (wildtype)]
- AUC(0-inf) [1]: 4770 ng·h/mL
- AUC(0-t) [1]: 4770 ng·h/mL
- Cmax [1]: 15800 ng/mL
- Tmax [1]: 5 min
- clearance ([1]; read-out: Clearance based on AUC 0-∞): 20.7 mL/min/kg
- half-life ([1]; read-out: Elimination Half-life): 14 min
- Vd ([1]; read-out: Volume of Distribution based on AUC 0-∞): 0.4 L/kg

Compound: CC[C@H](C)[C@@H]1NC(=O)[C@H](CC(=O)O)NC(=O)[C@H](Cc2ccc(O)cc2)NC(=O)[C@H](Cc2ccccc2)NC(=O)[C@H](CC(=O)O)NC(=O)[C@H](CCC(=O)O)NC(=O)[C@@H]2CSCc3cc(cc(c3)CSC[C@H](NC(C)=O)C(=O)N[C@@H](Cc3ccc(O)cc3)C(=O)N[C@@H](CC(N)=O)C(=O)N[C@@H](CCC(=O)O)C(=O)N[C@@H](Cc3c[nH]c4ccccc34)C(=O)NCC(=O)N2)CSC[C@@H](C(N)=O)NC1=O [17-69-44-N002, Ac-(17-69-07) Trp4] (Ac-CYNEWGCEDFYDIC-NH2; linker 1-7-14 via TBMB)
- Kd [2, 3]: 0.75 ± 0.23 nM

Compound: CC[C@H](C)[C@@H]1NC(=O)[C@H](CC(=O)O)NC(=O)[C@H](Cc2ccc(O)cc2)NC(=O)[C@H](Cc2ccccc2)NC(=O)[C@H](CC(=O)O)NC(=O)[C@H](CCC(=O)O)NC(=O)[C@@H]2CSCc3cc(cc(c3)CSC[C@H](NC(C)=O)C(=O)N[C@@H](Cc3ccc(O)cc3)C(=O)N[C@@H](CC(N)=O)C(=O)N[C@@H](CCC(=O)O)C(=O)N[C@@H](C3CCCCC3)C(=O)NCC(=O)N2)CSC[C@@H](C(N)=O)NC1=O [17-69-07-N065, Ac-(17-69-07) Chg4] (Ac-CYNE[Chg]GCEDFYDIC-NH2; linker 1-7-14 via TBMB)
- Kd [2, 3]: > 5000 nM

Compound: C[C@H](NC(=O)CN(C)C(=O)CN(C)C(=O)CN(C)C(=O)CN(C)C(=O)CN(C)C(=O)CN(C)C(=O)CN(C)C(=O)CN(C)C(=O)CN(C)C(=O)CN(C)C(=O)CN)C(=O)N[C@H]1CSCc2cc3cc(c2)CSC[C@H](NC(=O)[C@@H](C)NC(=O)[C@H](Cc2cccc4ccccc24)NC(=O)[C@H](CCC(=O)O)NC(=O)[C@H](CC(N)=O)NC(=O)[C@@H](C)NC1=O)C(=O)N[C@@H](CCC(=O)O)C(=O)N[C@@H](CC(=O)O)C(=O)N[C@@H](Cc1ccccc1)C(=O)N[C@@H](Cc1ccc(Br)cc1)C(=O)N[C@@H](CC(=O)O)C(=O)N[C@@H](C(C)(C)C)C(=O)N[C@H](C(N)=O)CSC3 [17-69-07-N244, G-Sar10-A-(17-69-07) D-Ala1 1Nal4 D-Ala5 4BrPhe9 tBuGly11] (H-G[Sar][Sar][Sar][Sar][Sar][Sar][Sar][Sar][Sar][Sar]AC[dA]NE[1Nal][dA]CEDF[Phe(4-Br)]D[Tle]C-NH2; linker 13-19-26 via TBMB)
- potency / activity toward MT1-MMP, in words [2]: potency which is superior to wildtype
- Kd ([2]; Table 12, molecules selected for plasma stability assessment): 0.45 ± 0.19 nM
